In patent US11312709B2, “Ghrelin O-acyltransferase inhibitors” (Glaxosmithkline Intellectual Property Development Limited, priority 2018, dated 2022):
Values belong to the compound of their own block, whether it stands above or below them.

Assays:
human GOAT = human GOAT (Homo sapiens (Human), UniProt Q96T53); experiment: GOAT TR-FRET (HTRF) inhibition assay, 384-well; format: biochemical; details: His-tag human GOAT membrane preparation from sf9 cells; read-out: hGOAT IC50
Description: Compounds contained herein were evaluated for their ability to inhibit the activity of GOAT. GOAT activity was assessed using a time-resolved fluorescence energy transfer (TR-FRET) assay in a 384-well format. His-tag human GOAT enzyme was in the form of a cell membrane preparation from sf9 cells infected with hGOAT-V5-His baculovirus. Varying concentrations of test compound with final DMSO concentration kept to 0.5% were added to membrane solution. Human GOAT membrane activity was established in a buffer having final concentration 0.25 mg/mL in 50 mM MOPS, pH7.5; 50 mM KCl; 0.1 mg/mL BSA; 50 μM CHAPS; and 2 mM EDTA. Substrate solution consisting of biotinylated ghrelin peptide (final concentration 100 nM), octanoyl coA (final concentration 2 μM) and palmitoyl CoA (final concentration 50 μM) was added to initiate the reaction. Plates were sealed, centrifuged for 1 minute at 2000 rpm, then incubated at 30° C. for 80 minutes with gentle shaking on an Eppendorf mix plate. Reaction termination and detection mix consisting of chicken anti-active ghrelin antibody (final concentration of 10 nM), Europium W1024-labeled streptavidin (final concentration of 4 nM), GOAT anti-chicken Dylight (final concentration of 12.5 nM), and GS[DAP-oc]-FL-amide inhibitor (final concentration of 1 μM) was added before further incubation for 40 minutes at 30° C. The plate was then read on an Envision in HTRF mode with excitation filter UV (TRF) 340 and first emission filter of APC 665 and a second emission filter of Europium 615. HTRF readings were acquired as per instrument defined LANCE-DELFIA protocol with a delay and window times of 50 μs for both; number of sequential windows: 1; time between flashes: 2000 μs between each of 100 flashes and 10 flashes for the second detector. The HTRF ratio was calculated directly by the instrument as the ratio of 665 window/615 window. Percent inhibition was calculated as 100−(100×(U−NC)/(PC−NC)) where U was the unknown value HTRF ratio (test compound value), NC was the negative control (100% inhibition value generated from a potent inhibitor), and PC was the positive control (100% activity generated from 0.5% DMSO vehicle). IC50 values were generated in GraphPad Prism (Version 4.03) using non-linear regression curve fit and sigmoidal dose response variable slope analysis.

acyl ghrelin [1] = experiment: Acyl ghrelin reduction in mice (fasting induced); format: in vivo; details: 5 doses; for acyl ghrelin reduction: 3 h after final dose, p<0.05
Description: (§1) Normal mice were administered various oral doses of Example 1a on a bid basis for two days (4 doses). Food was withdrawn the evening of the second day after the fourth dose, and then the animals were administered a final dose the morning of the third day. Three hours after this fifth and final dose, blood was collected for ghrelin and acyl ghrelin measurement by ELISA.

acyl ghrelin [2] = experiment: Acyl ghrelin reduction in rats (fasting induced); format: in vivo, male SD rats; details: 10 mg/kg, same design as mice
Description: as §1
The same experimental design was conducted in rats administered 10 mg/kg of Example 1a.

acyl ghrelin [3] = experiment: Single-dose PK/PD study, acyl ghrelin reduction in cynomolgus monkeys; format: in vivo; details: single oral dose 10 mg/kg, over the first 24 hours, fasted
Description: A single-dose PK/PD study was conducted in cynomolgus monkeys after a 10 mg/kg dose of Example 1a. On day zero, after an overnight fast, three monkeys were administered an oral dose of vehicle, and blood was collected pre-dose and 1, 3, 8, and 24 hours later. The 24 hour time point served as the pre-dose measurement for day 1 when, after an overnight fast, the monkeys were administered a single oral dose of 10 mg/kg Example 1a. Blood was collected at various time points (15 minutes, 30 minutes, 1 hour, 3 hours, 8 hours, 24 hours, 48 hours, 96 hours, and 168 hours) with overnight fasting throughout the study.

acyl ghrelin [4] = experiment: Acyl ghrelin reduction in mice on a high fat, high carb diet; format: in vivo, male C57BL/6 mice; details: HFHC diet; for reduction in acyl ghrelin levels compared to Rimonabant followed by vehicle: statistically significant
Description: Normal mice were acclimated to individual housing for two weeks on normal chow diet (20% calories from protein, 35% from carbohydrate, and 45% from fat). All mice except a control group were then switched to a high fat, high carb (HFHC) diet to cause obesity. Mice on the HFHC diet were administered 3 mg/kg Rimonabant once daily for seven days to cause weight loss except for one group that initiated 10 mg/kg Example 1a immediately. Mice that had been treated with Rimonabant were then administered various treatments in the evening for 21 days: vehicle, 3 mg/kg Rimonabant, or 10 mg/kg Example 1a. Mice were fasted overnight and administered a final treatment in the morning. Three hours later, blood was collected for plasma acyl ghrelin and des-acyl ghrelin determination.

[5] = normal mice, various oral doses bid, blood 3 h after final dose, fasted, ELISA
[6] = continuous treatment with 10 mg/kg Example 1a

Sequence of human GOAT (Q96T53 whole entry): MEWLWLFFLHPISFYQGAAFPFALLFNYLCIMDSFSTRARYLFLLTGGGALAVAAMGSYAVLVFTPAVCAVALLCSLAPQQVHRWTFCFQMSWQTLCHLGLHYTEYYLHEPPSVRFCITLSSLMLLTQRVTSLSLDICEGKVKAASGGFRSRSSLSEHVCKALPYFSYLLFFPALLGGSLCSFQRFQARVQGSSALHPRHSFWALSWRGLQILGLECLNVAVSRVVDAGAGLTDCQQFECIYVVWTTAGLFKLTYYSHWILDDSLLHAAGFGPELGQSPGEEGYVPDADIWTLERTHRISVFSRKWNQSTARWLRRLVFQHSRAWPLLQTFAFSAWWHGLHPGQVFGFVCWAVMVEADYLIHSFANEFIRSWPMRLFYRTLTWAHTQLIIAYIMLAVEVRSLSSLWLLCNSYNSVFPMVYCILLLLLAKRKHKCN

Compound: O=C(O)Cc1csc2c(Cl)c(O[C@@H]3CCc4nc(C(F)(F)F)ccc43)cc(Cl)c12 [Example 4b]
- IC50 (human GOAT): < 50 nM

Compound: O=C(O)Cc1csc2c(Cl)c(O[C@H]3CCc4nc(Cl)ccc43)cc(Cl)c12 [Example 3a]
- IC50 (human GOAT): < 500 nM

Compound: O=C(O)Cc1csc2cc(O[C@@H]3CCc4ncccc43)cc(Cl)c12 [Example 1b, (R)-2-(4-chloro-6-((6,7-dihydro-5H-cyclopenta[b]pyridin-5-yl)oxy)benzo[b]thiophen-3-yl)acetic acid]
- IC50 (human GOAT): < 5000 nM

Compound: O=C(O)Cc1csc2c(Cl)c(O[C@H]3CCc4nc(C(F)(F)F)ccc43)cc(Cl)c12 [Example 4a]
- IC50 (human GOAT): < 500 nM

Compound: O=C(O)Cc1csc2c(F)c(O[C@H]3COc4nc(C(F)(F)F)ccc43)cc(Cl)c12 [Example 5a]
- IC50 (human GOAT): < 5000 nM

Compound: O=C(O)Cc1csc2cc(O[C@H]3CCc4ncccc43)cc(Cl)c12 [Example 1a, (S)-2-(4-chloro-6-((6,7-dihydro-5H-cyclopenta[b]pyridin-5-yl)oxy)benzo[b]thiophen-3-yl)acetic Acid]
- IC50 (human GOAT): < 50 nM
- acyl ghrelin reduction (acyl ghrelin [1]; 1 mg/kg oral bid): statistically significant
- acyl ghrelin reduction (acyl ghrelin [1]; 10 mg/kg oral bid): statistically significant
- acyl ghrelin (dose response) (acyl ghrelin [1]; [5]): Dose-dependent decreases
- des-acyl ghrelin (dose response) (acyl ghrelin [1]; [5]): increases
- acyl ghrelin levels (acyl ghrelin [2]): significantly reduced
- des-acyl ghrelin levels (acyl ghrelin [2]): increased
- reduction in the acyl ghrelin AUC relative to vehicle treatment (acyl ghrelin [3]): 51%
- reduction in acyl ghrelin levels compared to Rimonabant followed by vehicle (acyl ghrelin [4]; 10 mg/kg Example 1a for 21 days after 7 days of 3 mg/kg Rimonabant): 61%
- des-acyl ghrelin levels relative to Rimonabant followed by vehicle treatment (acyl ghrelin [4]; both Example 1a treatments (10 mg/kg)): statistically significantly elevated
- reduction in acyl ghrelin compared to vehicle treatment alone (acyl ghrelin [4]; [6]): 28%
- reduction in acyl ghrelin levels compared to Rimonabant followed by vehicle (acyl ghrelin [4]; [6]): 57%

Compound: O=C(O)Cc1csc2c(F)c(O[C@@H]3COc4nc(C(F)(F)F)ccc43)cc(Cl)c12 [Example 5b]
- IC50 (human GOAT): < 50 nM

Compound: Cc1c(C(=O)NN2CCCCC2)nn(-c2ccc(Cl)cc2Cl)c1-c1ccc(Cl)cc1 [Rimonabant, reference compound]
- acyl ghrelin levels (so in the source); context is des-acyl ghrelin, FIG. 8) (acyl ghrelin [4]; 3 mg/kg Rimonabant treatment alone, not as much as with Example 1a): increased

Compound: O=C(O)Cc1csc2c(Cl)c(O[C@@H]3CCc4nc(Cl)ccc43)cc(Cl)c12 [Example 3b]
- IC50 (human GOAT): < 50 nM

Compound: Cc1ccc2c(n1)CC[C@H]2Oc1cc(Cl)c2c(CC(=O)O)csc2c1 [Example 2b, (R)-2-(4-chloro-6-((2-methyl-6,7-dihydro-5H-cyclopenta[b]pyridin-5-yl)oxy)benzo[b]thiophen-3-yl)acetic acid]
- IC50 (human GOAT): < 5000 nM

Compound: Cc1ccc2c(n1)CC[C@@H]2Oc1cc(Cl)c2c(CC(=O)O)csc2c1 [Example 2a, (S)-2-(4-chloro-6-((2-methyl-6,7-dihydro-5H-cyclopenta[b]pyridin-5-yl)oxy)benzo[b]thiophen-3-yl)acetic acid]
- IC50 (human GOAT): < 50 nM

Compound: N#Cc1ccc2c(n1)CCC2Oc1cc(Cl)c2c(CC(=O)O)csc2c1 (racemic) [Example 8, 2-(4-chloro-6-((2-cyano-6,7-dihydro-5H-cyclopenta[b]pyridin-5-yl)oxy)benzo[b]thiophen-3-yl)acetic Acid]
- IC50 (human GOAT): < 50 nM

Second part, the compound after the results:

- IC50 (human GOAT): < 50 nM
Compound: NC(=O)c1ccc2c(n1)CC[C@H]2Oc1cc(Cl)c2c(CC(=O)O)csc2c1 [Example 9b]

- IC50 (human GOAT): < 500 nM
Compound: NC(=O)c1ccc2c(n1)CC[C@@H]2Oc1cc(Cl)c2c(CC(=O)O)csc2c1 [Example 9a]

- IC50 (human GOAT): < 5000 nM
Compound: O=C(O)Cc1csc2c(Cl)c(O[C@H]3COc4ncccc43)cc(Cl)c12 [Example 7a]

- IC50 (human GOAT): < 50 nM
Compound: O=C(O)Cc1csc2cc(O[C@@H]3COc4ncccc43)cc(Cl)c12 [Example 6b]

- IC50 (human GOAT): < 50 nM
Compound: O=C(O)Cc1csc2c(Cl)c(O[C@@H]3COc4ncccc43)cc(Cl)c12 [Example 7b]

- IC50 (human GOAT): < 50 nM
Compound: O=C(O)Cc1csc2cc(O[C@H]3COc4ncccc43)cc(Cl)c12 [Example 6a]
